≈ marks a conversion by molar mass, not a printed value.
What was measured:
C. difficile 2001 = assay: Minimal Inhibitory Concentration in broth; type: cell-based; conditions: Clostridioides difficile, 2001, C. difficile 2001
MSSA 33591 = assay: Minimal Inhibitory Concentration in broth; type: cell-based; conditions: Staphylococcus aureus
human red blood cells = type: cell-based
Protocol: The effect of NOVO3 on the hemolysis of human red blood cells was also tested. A total of 10 ml of expired packed red blood cells from the blood bank was gently added to 80 ml of PBS (Phosphate buffered saline), and pelleted at 1000 g for 5 minutes at 4° C. The upper phase and buffy layer (white blood cells) were removed. The cells are repeatedly washed by gentle mixing with PBS, and centrifugation until the upper phase is clear. In the last wash, 40 ml of 1×PBS with 0.05% BSA was added to half of the red blood cells while 40 ml of 1×PBS without BSA was added to the other half. The upper phase of the last wash was removed to leave a total volume of about 10 ml. The concentration of the red blood cells was measured by using the spectrophometer at 600 nm. […]
The compound NOVO3 is two-fold serially diluted (similar to that described above for mammalian NIH3T3 cytotoxicity assay) as 100× concentration in DMSO, ranging from 12.5 μg/ml to 3200 μg/ml. […] After thorough mixing, the absorbance at 450 nm was read using a Spectramax Plus Spectrophotometer, with wells A12, and B12 reserved […], using wells with only 1×PBS as blanks.
The absorbance at 450 nm measured the amount of hemoglobin released by the lysis of red blood cells (FIG. 4). […]

B. subtilis 1A1 [1] = assay: Growth inhibition on solid agar (5 μl spot on bacterial lawn); type: cell-based; conditions: minimal concentration giving observable zone of no growth, MHB agar
B. subtilis 1A1 [2] = assay: Minimal Inhibitory Concentration in broth; conditions: Bacillus subtilis, 1A1, B. subtilis 1A1
[3] = test system: E. faecalis ATCC 51299 (VRE); assay: Growth inhibition on solid agar (5 μl spot on bacterial lawn); type: cell-based; conditions: minimal concentration giving observable zone of no growth, MHB agar
MRSA NRS108 [4] = assay: Minimal Inhibitory Concentration in broth; conditions: Staphylococcus aureus
B. anthracis Sterne = type: cell-based; conditions: minimal concentration giving observable zone of no growth, MHB agar
[5] = test system: E. faecalis ATCC 51575 (VRE); assay: Growth inhibition on solid agar (5 μl spot on bacterial lawn); type: cell-based; conditions: minimal concentration giving observable zone of no growth, MHB agar
[6] = test system: NIH3T3 mouse embryonic fibroblasts; assay: Mammalian cytotoxicity assay (CellTiter 96 AQueous One Solution); type: cell-based; conditions: NIH3T3 cells, 24 hr exposure; concentration with 50% of control signal
Protocol: Mammalian cytotoxicity assays were performed using NIH3T3 mouse embryonic fibroblasts (ATCC CRL-1658), and cytotoxicity was measured using the CellTiter 96® AQueous One Solution Cell Proliferation Assay (Promega, Madison, Wis., Cat: G3582), according to the manufacturer's recommendations.
A control of DMSO was also included (wells in column A01, and A12).
An exponentially growing population of NIH/3T3 mouse embryonic fibroblast cells was trypsinized into single cell suspension and seeded at 3000 cells per 100 μl in all wells, except column 11 and 12 of a sterile 96-well flat bottom plate. […]
The plate was visually inspected under a dissecting microscope, and the absorbance at 490 nm was read using a Spectramax Plus Spectrophotometer, with wells A12, and B12 reserved as blanks (FIG. 3). The signal of compound alone (well All) was verified not to contribute to the absorbance at this wavelength. Next, 20 μl of the CellTiter 96® AQueous One Solution Cell Proliferation Assay (Promega, Madison, Wis., Cat: G3582) was added to each well, and the plate was read after 3 hr of incubation. […]

MRSA NRS108 [7] = assay: Growth inhibition on solid agar (5 μl spot on bacterial lawn); type: cell-based, Staphylococcus aureus; conditions: minimal concentration giving observable zone of no growth, MHB agar
C. difficile 196 = assay: Minimal Inhibitory Concentration in broth; type: cell-based; conditions: Clostridioides difficile, MHB + 0.05% BSA
E. faecalis BM4147 (VRE) = assay: Growth inhibition on solid agar (5 μl spot on bacterial lawn); type: cell-based; conditions: minimal concentration giving observable zone of no growth, MHB agar
MRSA NRS1 = assay: as above; type: cell-based, Staphylococcus aureus; conditions: minimal concentration giving observable zone of no growth, MHB agar
MSSA 29213 = assay: Minimal Inhibitory Concentration in broth; type: cell-based; conditions: Staphylococcus aureus

With `CC1/C=C/C=C\C=C\CC(C)C(OC2OC(C)C(O)C(N)C2O)C\C=C/C=C/C=C\C(=O)NC1` (stereo not shown) [NOVO3] the MIC (C. difficile 2001; MHB) was 32 µg/mL (≈ 67.7 µM), the MIC (C. difficile 2001; MHB + 0.05% BSA) was 8 µg/mL and the MIC (MSSA 33591; MHB) was 8 µg/mL (≈ 16.9 µM). For the same compound, the MIC (MSSA 33591; MHB + 0.05% BSA) was 0.25 µg/mL, the hemolysis (human red blood cells) was “no significant hemolysis” and the “Growth Inhibition with 5 μl of NOVO3” value (B. subtilis 1A1 [1]) was 0.125 µg/mL. It also gave an MIC (B. subtilis 1A1 [2]; MHB (Table 3)) of 3 ± 1.3 µg/mL (≈ 6.35 µM), an MIC (B. subtilis 1A1 [2]; MHB (Table 4, serum study)) of 3 ± 1.3 µg/mL (≈ 6.35 µM) and an MIC (B. subtilis 1A1 [2]; MHB + 0.02% Tween 80) of 0.25 µg/mL. For the same compound, the MIC (B. subtilis 1A1 [2]; MHB + 0.05% BSA) was 0.166 ± 0.08 µg/mL, the MIC (B. subtilis 1A1 [2]; MHB + 10% Calf Bovine Serum) was 0.144 µg/mL and the MIC (B. subtilis 1A1 [2]; MHB + 10% human serum) was 0.125 µg/mL. The MIC (B. subtilis 1A1 [2]; MHB + 10% mouse serum) was 0.125 µg/mL, the MIC (B. subtilis 1A1 [2]; MHB + 40% Calf Bovine Serum) was 0.125 µg/mL and the “Growth Inhibition with 5 μl of NOVO3” value [3] was 1.25 µg/mL. For the same compound, the MIC (MRSA NRS108 [4]; MRSA NRS108, MHB (Table 3)) was 8 µg/mL (≈ 16.9 µM), the MIC (MRSA NRS108 [4]; MRSA NRS108, MHB (Table 4B, serum study)) was 4 to 8 µg/mL (≈ 8.46 to 16.9 µM) and the MIC (MRSA NRS108 [4]; MRSA NRS108, MHB + 0.05% BSA) was 0.25 to 0.5 µg/mL. The MIC (MRSA NRS108 [4]; MRSA NRS108, MHB + 10% Calf Bovine Serum) was 0.25 to 0.5 µg/mL, the MIC (MRSA NRS108 [4]; MRSA NRS108, MHB + 40% Calf Bovine Serum) was 0.25 µg/mL and the MIC (MRSA NRS108 [4]; MRSA|NRS108, MRSA NRS108, GM (Dulbecco's Modified Eagle's medium with 10% bovine calf serum)) was 0.25 µg/mL (≈ 0.529 µM). For the same compound, the “Growth Inhibition with 5 μl of NOVO3” value (B. anthracis Sterne) was 1.25 µg/mL, the “Growth Inhibition with 5 μl of NOVO3” value [5] was 5 µg/mL and the LD50 [6] was > 32 µg/mL. The “Growth Inhibition with 5 μl of NOVO3” value (MRSA NRS108 [7]) was 1.25 µg/mL, the MIC (C. difficile 196) was 8 µg/mL and the “Growth Inhibition with 5 μl of NOVO3” value (E. faecalis BM4147 (VRE)) was 1.25 µg/mL. For the same compound, the “Growth Inhibition with 5 μl of NOVO3” value (MRSA NRS1) was 1.25 µg/mL, the MIC (MSSA 29213; MHB) was 8 µg/mL (≈ 16.9 µM) and the MIC (MSSA 29213; MHB + 0.05% BSA) was 0.25 µg/mL.
In the case of Triton X100 [reference compound], the “absorbance at 450 nm (hemoglobin released)” value (human red blood cells) is reported as 0.41.

— US8097709B2, “Macrolactam compounds” (Novobiotic Pharmaceuticals, Inc., priority 2007, dated 2012)
